The source of these data is ChEMBL document CHEMBL5260832, “Hepatoprotective natural triterpenoids” (Eur J Med Chem, 2018).

Data set [1] can be described thus: Hepatotoxicity in rat assessed as reduction in GPT level at 1.0 mg/mL measured after 48 hrs (reference value: 291 IU/L). It is filed as toxicity. To be noted: in vivo.
The test system of data set [2] is Hepatocyte. Description: Hepatoprotective activity against D-GaIN/TNFalpha induced cell death in mouse hepatocytes assessed as reduction in TNF alpha level. It is filed as functional, cell-based.
Data set [3] can be described thus: Hepatoprotective activity against D-Galactosamine-induced toxicity in rat WB-F344 cell assessed as cell damage at 10 uM by MTT colorimetric assay relative to control. It is filed as functional.
The test system of data set [4] is Hepatocyte. The data set can be described thus: Hepatoprotective activity against D-GaIN/TNFalpha -induced cell death in mouse hepatocyte assessed as inhibition of cell death. The data set is classed as functional, cell-based. Details: Activity: concentration or dose not given beside the values.
Data set [5] relates to Hepatocyte. The data set can be described thus: Hepatoprotective activity against D-GaIN induced liver injury in rat hepatocyte assessed as decrease in ALT level at 30 to 120 uM. The data set is classed as functional. The settings on record: dose 30-120 µM.
The test system of data set [6] is Hepatocyte. Description: Hepatoprotective activity against D-GaIN induced liver injury in rat hepatocyte assessed as decrease in LDH level at 30 to 120 uM. The data set is classed as functional. To be noted: dose 30-120 µM.
Data set [7] in a line: Hepatotoxicity in D-GaIN induced in Wistar rat model hepatocyte assessed as reduction in PLA2 level. It is filed as toxicity, cell-based.

For `CC1(C)CC[C@]2(C(=O)O[C@@H]3O[C@H](CO[C@@H]4O[C@H](CO)[C@@H](O)[C@H](O)[C@H]4O)[C@@H](O)[C@H](O[C@@H]4O[C@H](CO)[C@@H](O)[C@H](O)[C@H]4O)[C@H]3O)CC[C@]3(C)C(=CC[C@@H]4[C@@]5(C)CC[C@H](O[C@@H]6O[C@H](CO)[C@@H](O)[C@H](O)[C@H]6O)[C@@](C)(C(=O)O)[C@@H]5CC[C@]43C)[C@@H]2C1`, the Activity in data set [1] worked out at 279 IU/L.

Turning to `C=C(C)[C@H](O)CC[C@@H](C)[C@H]1CC[C@@]2(C)[C@@H]3CC[C@H]4[C@](C)(C(=O)O)[C@@H](O)C[C@H](O)[C@@]45C[C@@]35CC[C@]12C`, in the data set with Hepatocyte [2], the IC50 amounted to 34.3 µM.

With `CC(C)=CC[C@@H](O)[C@@H](C)[C@H]1CC[C@@]2(C)C3=C(C(=O)C[C@]12C)[C@@]1(C)CC[C@H](O)C(C)(C)[C@@H]1CC3`, the Activity in data set [3] was found to be 81.2%.

Take `C[C@@H]1C(=O)O[C@H]2[C@@H]1O[C@]13O[C@@]4(CC[C@]5(C)C(=O)[C@](C)(O)[C@@]2(O)[C@H]15)C[C@]12OC(=O)C[C@H]1OC(C)(C)[C@@H]2C[C@@H]1O[C@@]14C3=O`: in the data set on Hepatocyte [4], the Activity worked out at 37.6%.

In the case of `CC1(C)[C@@H](O[C@@H]2O[C@H](C(=O)O)[C@@H](O)[C@H](O)[C@H]2O[C@@H]2O[C@H](C(=O)O)[C@@H](O)[C@H](O)[C@H]2O)CC[C@]2(C)[C@H]3C(=O)C=C4[C@@H]5C[C@](C)(C(=O)O)CC[C@]5(C)CC[C@@]4(C)[C@]3(C)CC[C@@H]12`, the Activity is given as 17.1 U/L with Hepatocyte [5] and 253.5 U/L in the data set with Hepatocyte [6]. The IC50 in data set [7] was 16.9 µM.

As for `C=C(C)[C@@H]1CC[C@]2(C(=O)O)CC[C@]3(C)[C@H](CC[C@@H]4[C@@]5(C)C[C@@H](O)[C@H](O)[C@](C)(CO)[C@@H]5[C@H](O)C[C@]43C)[C@@H]12`, the IC50 in the data set on Hepatocyte [4] (Mus musculus, Hepatocyte) is 51.2 µM.

Take `CC(C)=C(C)[C@H]1C[C@@H]([C@H]2CC[C@@]3(C)C4=C(CC[C@]23C)[C@@]2(C)CC[C@H](O)C(C)(C)[C@@H]2CC4)C(=O)O1`: the Activity in data set [3] worked out at 71.9%.

As for `CC(C)C(O)(CO)CC[C@@H](C)[C@H]1CC[C@@]2(C)[C@@H]3CC[C@H]4[C@H](C(=O)O)[C@@H](O)C[C@H](O)[C@@]45C[C@@]35CC[C@]12C` (stereo partly specified), in the data set on Hepatocyte [2], the IC50 came to 67.6 µM.

As to `C[C@]1(C(=O)O)CC[C@]2(C)CC[C@]3(C)C(=CC(=O)[C@@H]4[C@@]5(C)CC[C@H](O[C@@H]6O[C@H](C(=O)O)[C@@H](O)[C@H](O)[C@H]6O[C@@H]6O[C@H](C(=O)O)[C@@H](O)[C@H](O)[C@H]6O)[C@](C)(CO)[C@@H]5CC[C@]43C)[C@@H]2C1`, the Activity amounted to 17.1 U/L with Hepatocyte [5] and 253.5 U/L with Hepatocyte [6]. The 50% inhibitory concentration (IC50) in data set [7] is 6.9 µM.

As to `CC1=CC[C@H]([C@@H](C)[C@H]2CC[C@@]3(C)CCC[C@H]4C(C)(C)O[C@@H]5CC(=O)O[C@@]54CC(=O)[C@H](O)C[C@]23C)OC1=O`, the Activity in the data set on Hepatocyte [4] is on record as 37.6%.

In the case of `CC(C)=CCC[C@@H](C)[C@H]1CC[C@@]2(C)C3=C(CC[C@]12C)[C@@]1(C)CC[C@H](O)C(C)(C)[C@@H]1CC3` [LANOSTEROL], the Activity in data set [3] is reported as 74.8%.

In the case of `C[C@H]1C(=O)O[C@@H]2[C@H]1O[C@@]13O[C@]4(CC[C@@]5(C)C(=O)[C@@](C)(O)[C@]2(O)[C@@H]15)C[C@@]12OC(=O)C[C@@H]1OC(C)(C)[C@H]2C[C@@H](O)[C@@H]4C3=O`, in the data set with Hepatocyte [4], the Activity stood at 37.6%.

For `C[C@@]1(CO)CC[C@]2(C(=O)O[C@@H]3O[C@H](CO)[C@@H](O)[C@H](O)[C@H]3O)CC[C@]3(C)C(=CC[C@@H]4[C@@]5(C)CC[C@H](O)[C@@](C)(C(=O)O)[C@@H]5CC[C@]43C)[C@@H]2C1`, the Activity in data set [1] is on record as 206 IU/L.

In the case of `CC1(C)[C@@H](O[C@H]2O[C@H](C(=O)O)[C@@H](O)[C@H](O)[C@H]2O[C@@H]2O[C@H](C(=O)O)[C@@H](O)[C@H](O)[C@H]2O)CC[C@]2(C)[C@H]3C(=O)C=C4[C@@H]5C[C@@](C)(C(=O)O)CC[C@]5(C)CC[C@@]4(C)[C@]3(C)CC[C@@H]12` [GLYCYRRHIZIN], the Activity amounted to 17.1 U/L with Hepatocyte [5] and 253.5 U/L in the data set on Hepatocyte [6]. Moreover, in data set [7], the IC50 turned out to be 9.3 µM.

`C[C@@H]1C(=O)[C@]2(C)CC[C@@]34C[C@@]56OC(=O)C[C@@H]5OC(C)(C)[C@H]6C[C@@H](O)[C@@H]3C(=O)[C@]3(O[C@@H]5[C@@H](OC(=O)[C@@H]5C)[C@H]1[C@@H]32)O4`: the Activity in the data set with Hepatocyte [4] was 37.6%.

With `C[C@@H]1C(=O)O[C@H]2[C@@H]1O[C@]13O[C@@]4(CC[C@]5(C)C(=O)[C@@](C)(O)[C@H]2[C@H]15)C[C@]12OC(=O)C[C@H]1OC(C)(C)[C@@H]2C[C@@H]1O[C@@]14C3=O`, in the data set with Hepatocyte [4], the Activity was 37.6%.

Consider `CC1(C)CC[C@]2(C(=O)O[C@@H]3O[C@H](CO[C@@H]4O[C@H](CO)[C@@H](O)[C@H](O)[C@H]4O)[C@@H](O)[C@H](O)[C@H]3O)CC[C@]3(C)C(=CC[C@@H]4[C@@]5(C)CC[C@H](O[C@@H]6O[C@H](CO)[C@@H](O)[C@H](O)[C@H]6O)[C@@](C)(C(=O)O)[C@@H]5CC[C@]43C)[C@@H]2C1`, for which the Activity in data set [1] worked out at 279 IU/L.

As to `CC(C)=CCC[C@@H](C(=O)O)[C@H]1CC[C@@]2(C)C3=C(CC[C@]12C)[C@@]1(C)CC[C@H](O)C(C)(C)[C@@H]1CC3` [TRAMETENOLIC ACID], the Activity in data set [3] turned out to be 75%.

`CC1(C)CC[C@]2(C(=O)O[C@@H]3O[C@H](CO[C@@H]4O[C@H](CO)[C@@H](O)[C@H](O)[C@H]4O)[C@@H](O)[C@H](O[C@@H]4O[C@H](CO)[C@@H](O)[C@H](O)[C@H]4O)[C@H]3O)CC[C@]3(C)C(=CC[C@@H]4[C@@]5(C)CC[C@H](O)[C@@](C)(C(=O)O)[C@@H]5CC[C@]43C)[C@@H]2C1`: the Activity in data set [1] was determined as 279 IU/L.

Turning to `C=C(C)C(=O)CC[C@@H](C=O)[C@H]1CC[C@@]2(C)[C@@H]3CC[C@H]4[C@](C)(C(=O)OC)[C@@H](O)C[C@H](O)[C@@]45C[C@@]35CC[C@]12C`, the IC50 with Hepatocyte [2] turned out to be 89.3 µM.

Consider `C=C(C)[C@@H](O)CC[C@@H](CO)[C@H]1CC[C@@]2(C)[C@@H]3CC[C@H]4[C@](C)(C(=O)OC)[C@@H](O)C[C@H](O)[C@@]45C[C@@]35CC[C@]12C` [METHYL QUADRANGULARATE], for which the IC50 in the data set with Hepatocyte [2] came out at 337 µM.

As for `CC(C)=CC[C@H](O)[C@@H](C)[C@H]1CC[C@@]2(C)C3=C(CC[C@]12C)[C@@]1(C)CC[C@H](O)C(C)(C)[C@@H]1CC3`, the Activity in data set [3] is 56.3%.

Take `COC(=O)[C@]1(C)[C@@H](O)C[C@H](O)[C@]23C[C@]24CC[C@]2(C)[C@@H]([C@H](C=O)C/C=C/C(C)(C)O)CC[C@@]2(C)[C@@H]4CC[C@@H]13`: in the data set on Hepatocyte [2], the IC50 stood at 45.7 µM.

As to `CC1(C)[C@@H](O[C@@H]2O[C@H](C(=O)O)[C@@H](O)[C@H](O)[C@H]2O[C@@H]2O[C@H](C(=O)O)[C@@H](O)[C@H](O)[C@H]2O)CC[C@]2(C)[C@H]3C(=O)C=C4[C@@H]5C[C@]6(C)C[C@@H](OC6=O)[C@]5(C)CC[C@@]4(C)[C@]3(C)CC[C@@H]12`, the IC50 in data set [7] was determined as 32.2 µM.

In the case of `CC1(C)CC[C@]2(C(=O)O[C@@H]3O[C@H](CO)[C@@H](O)[C@H](O)[C@H]3O)CC[C@]3(C)C(=CC[C@@H]4[C@@]5(C)CC[C@H](O)[C@@](C)(C(=O)O)[C@@H]5CC[C@]43C)[C@@H]2C1`, the Activity in data set [1] is reported as 137 IU/L.
